The values below come from US20250145594A1, “MODULATORS OF THE INTEGRATED STRESS PATHWAY” (Calico Life Sciences LLC, priority 2020, published 2025).

A word on the EC50: it is the concentration needed to bring the measured effect to its halfway point.

Some results are limits rather than exact numbers.

In one test the test system is ATF4 luciferase reporter in HEK293T cells. Nature of the test: ATF4-Luc assay (in vitro model of VWMD). In kind it is cell-based, human. To be noted: HEK293T cells carrying the ATF4 luciferase reporter, 1 μg/mL tunicamycin, 7 hours, One Glo luminescence. In short, it runs like this:
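Tunicamycin (1 μg/mL) stress with co-added compound for 7 hours in HEK293T cells stably carrying an ATF4 5′-UTR–luciferase reporter. EC50 values come from the luminescent signal (One Glo).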
On the technique in general: In a reporter assay the amount or activity of a reporter protein is the signal.
Regarding `O=C(COc1ccc(Cl)c(F)c1)NC12CC(n3cc(OCCOC(F)(F)F)cn3)(C1)C2` [Compound 617, 2-(4-chloro-3-fluorophenoxy)-N-(3-{4-[2-(trifluoromethoxy)ethoxy]-1H-pyrazol-1-yl}bicyclo[1.1.1]pentan-1-yl)acetamide], the EC50 is under 10 nM.

Still in this test, the particulars now being: Homo sapiens, HEK-293T, 7 h, HEK293T cells carrying the ATF4 luciferase reporter, 1 μg/mL tunicamycin, One Glo luminescence.
With `O=C(COc1ccc(Cl)c(F)c1)N[C@H]1CC[C@H](n2cc(C(=O)N3CC[C@H](OC(F)(F)F)C3)cn2)CC1` [Compound 609, 2-(4-chloro-3-fluorophenoxy)-N-[(1S,4r)-4-{4-[(3S)-3-(trifluoromethoxy)pyrrolidine-1-carbonyl]-1H-pyrazol-1-yl}cyclohexyl]acetamide], the EC50 is under 10 nM.

As for `O=C(COc1ccc(Cl)c(F)c1)NC12CC(n3cc(OC[C@H]4C[C@@H](OC(F)(F)F)C4)cn3)(C1)C2` [Compound 612, 2-(4-chloro-3-fluorophenoxy)-N-[3-(4-{[(1s,3s)-3-(trifluoromethoxy)cyclobutyl]methoxy}-1H-pyrazol-1-yl)bicyclo[1.1.1]pentan-1-yl]acetamide], the EC50 is under 10 nM.

Regarding `O=C(COc1ccc(Cl)c(F)c1)NC12CC(n3cc(CCCOC(F)(F)F)cn3)(C1)C2` [Compound 613, 2-(4-chloro-3-fluorophenoxy)-N-(3-{4-[3-(trifluoromethoxy)propyl]-1H-pyrazol-1-yl}bicyclo[1.1.1]pentan-1-yl)acetamide], the EC50 fell in the range of 10 to 50 nM.

Turning to `O=C(COc1ccc(C(F)(F)F)c(F)c1)N[C@H]1CC[C@H](n2cc(C(=O)N3CC[C@H](OC(F)(F)F)C3)cn2)CC1` [Compound 614, 2-[3-fluoro-4-(trifluoromethyl)phenoxy]-N-[(1S,4r)-4-{4-[(3S)-3-(trifluoromethoxy)pyrrolidine-1-carbonyl]-1H-pyrazol-1-yl}cyclohexyl]acetamide], the EC50 is under 10 nM.

For the compound `O=C(COc1ccc(C(F)(F)F)cc1O)NC12CC(n3cc([C@H]4C[C@@H](OC(F)(F)F)C4)nn3)(C1)C2` [Compound 615, 2-[2-hydroxy-4-(trifluoromethyl)phenoxy]-N-(3-{4-[(1s,3s)-3-(trifluoromethoxy)cyclobutyl]-1H-1,2,3-triazol-1-yl}bicyclo[1.1.1]pentan-1-yl)acetamide], the EC50 lay in the range of 10 to 50 nM.

As to `O=C(COc1ccc(Cl)cc1O)NC12CC(n3cc(OCCOC(F)(F)F)cn3)(C1)C2` [Compound 616, 2-(4-chloro-2-hydroxyphenoxy)-N-(3-{4-[2-(trifluoromethoxy)ethoxy]-1H-pyrazol-1-yl}bicyclo[1.1.1]pentan-1-yl)acetamide], the EC50 is under 10 nM.

On to `O=C(COc1ccc(Cl)cc1O)NC12CC(n3cc([C@H]4C[C@@H](OC(F)(F)F)C4)nn3)(C1)C2` [Compound 618, 2-(4-chloro-2-hydroxyphenoxy)-N-(3-{4-[(1s,3s)-3-(trifluoromethoxy)cyclobutyl]-1H-1,2,3-triazol-1-yl}bicyclo[1.1.1]pentan-1-yl)acetamide], for which the EC50 fell in the range of 10 to 50 nM.

For `O=C(COc1ccc(Cl)c(F)c1)NC12CC(c3ccc(C(=O)N4CCC(C(F)(F)F)C4)nc3)(C1)C2` (centres unmarked) [Compound 619, 2-(4-chloro-3-fluorophenoxy)-N-(3-{6-[3-(trifluoromethyl)pyrrolidine-1-carbonyl]pyridin-3-yl}bicyclo[1.1.1]pentan-1-yl)acetamide], the concentration for a half-maximal effect (EC50) lay in the range of 10 to 50 nM.

For the compound `O=C(COc1ccc(Cl)c(F)c1)NC12CC(n3cc([C@H]4C[C@@H](OC(F)(F)F)C4)nn3)(C1)C2` [Compound 620, 2-(4-chloro-3-fluorophenoxy)-N-(3-{4-[(1s,3s)-3-(trifluoromethoxy)cyclobutyl]-1H-1,2,3-triazol-1-yl}bicyclo[1.1.1]pentan-1-yl)acetamide], the concentration for a half-maximal effect (EC50) was under 10 nM.

Regarding `O=C(COc1ccc(C(F)(F)F)c(F)c1)NC12CC(n3cc(C(=O)N4CC[C@H](OC(F)(F)F)C4)cn3)(C1)C2` [Compound 621, 2-[3-fluoro-4-(trifluoromethyl)phenoxy]-N-(3-{4-[(3S)-3-(trifluoromethoxy)pyrrolidine-1-carbonyl]-1H-pyrazol-1-yl}bicyclo[1.1.1]pentan-1-yl)acetamide], the EC50 is under 10 nM.

As for `COc1cc2cn(C34CC(NC(=O)COc5ccc(Cl)c(Cl)c5)(C3)C4)nc2cn1` [Compound 622, 2-(3,4-dichlorophenoxy)-N-[3-(5-methoxy-2H-pyrazolo[3,4-c]pyridin-2-yl)bicyclo[1.1.1]pentan-1-yl]acetamide], the EC50 fell in the range of 10 to 50 nM.

Take `CCOc1ccc2nn(C34CC(NC(=O)COc5ccc(Cl)c(Cl)c5)(C3)C4)cc2c1` [Compound 623, 2-(3,4-dichlorophenoxy)-N-[3-(5-ethoxy-2H-indazol-2-yl)bicyclo[1.1.1]pentan-1-yl]acetamide]: the half-maximal effective concentration (EC50) is under 10 nM.

Take `O=C(COc1ccc(Cl)c(F)c1)NC12CCC(n3cc(C(=O)N4CC[C@H](OC(F)(F)F)C4)cn3)(CC1)CC2` [Compound 624, 2-(4-chloro-3-fluorophenoxy)-N-(4-{4-[(3S)-3-(trifluoromethoxy)pyrrolidine-1-carbonyl]-1H-pyrazol-1-yl}bicyclo[2.2.2]octan-1-yl)acetamide]: the EC50 was under 10 nM.

`O=C(COc1ccc(Cl)c(F)c1)NC12CC(n3cc([C@H]4[C@@H]5CN(CC(F)(F)F)C[C@@H]54)cn3)(C1)C2` [Compound 625, 2-(4-chloro-3-fluorophenoxy)-N-(3-{4-[(1R,5S,6s)-3-(2,2,2-trifluoroethyl)-3-azabicyclo[3.1.0]hexan-6-yl]-1H-pyrazol-1-yl}bicyclo[1.1.1]pentan-1-yl)acetamide]: the EC50 is under 10 nM.

`O=C(NC12CCC(n3cc(-c4ccc(C(F)(F)F)cn4)cn3)(C1)C2)[C@H]1C[C@@H](O)c2cc(Cl)ccc2O1` [Compound 626, (2R,4R)-6-chloro-4-hydroxy-N-(4-{4-[5-(trifluoromethyl)pyridin-2-yl]-1H-pyrazol-1-yl}bicyclo[2.1.1]hexan-1-yl)-3,4-dihydro-2H-1-benzopyran-2-carboxamide]: the EC50 is 10 to 50 nM.

In the case of `O=C(NC12CCC(n3cc(-c4ccc(C(F)(F)F)cn4)cn3)(C1)C2)[C@H]1C[C@@H](O)c2cc(Cl)c(F)cc2O1` [Compound 627, (2R,4R)-6-chloro-7-fluoro-4-hydroxy-N-(4-{4-[5-(trifluoromethyl)pyridin-2-yl]-1H-pyrazol-1-yl}bicyclo[2.1.1]hexan-1-yl)-3,4-dihydro-2H-1-benzopyran-2-carboxamide], the EC50 is under 10 nM.

`O=C(NC12CCC(n3cc(OCCCOC(F)(F)F)cn3)(C1)C2)[C@H]1C[C@@H](O)c2cc(Cl)ccc2O1` [Compound 628, (2R,4R)-6-chloro-4-hydroxy-N-(4-{4-[3-(trifluoromethoxy)propoxy]-1H-pyrazol-1-yl}bicyclo[2.1.1]hexan-1-yl)-3,4-dihydro-2H-1-benzopyran-2-carboxamide]: the EC50 lay in the range of 50 to 250 nM.

For the compound `O=C(NC12CCC(n3cc(OCCCOC(F)(F)F)cn3)(C1)C2)[C@H]1C[C@@H](O)c2cc(Cl)c(F)cc2O1` [Compound 629, (2R,4R)-6-chloro-7-fluoro-4-hydroxy-N-(4-{4-[3-(trifluoromethoxy)propoxy]-1H-pyrazol-1-yl}bicyclo[2.1.1]hexan-1-yl)-3,4-dihydro-2H-1-benzopyran-2-carboxamide], the EC50 was in the range of 10 to 50 nM.

Take `O=C(COc1ccc(Cl)c(F)c1)NC12CCC(n3cc(OCCCOC(F)(F)F)cn3)(C1)C2` [Compound 630, 2-(4-chloro-3-fluorophenoxy)-N-(4-{4-[3-(trifluoromethoxy)propoxy]-1H-pyrazol-1-yl}bicyclo[2.1.1]hexan-1-yl)acetamide]: the half-maximal effective concentration (EC50) lay in the range of 50 to 250 nM.

Turning to `O=C(NC12CC(n3cc(OCCOC(F)(F)F)cn3)(C1)C2)[C@@H]1C[C@@H](O)c2cc(Cl)ccc2O1` [Compound 631, (2S,4R)-6-chloro-4-hydroxy-N-(3-{4-[2-(trifluoromethoxy)ethoxy]-1H-pyrazol-1-yl}bicyclo[1.1.1]pentan-1-yl)-3,4-dihydro-2H-1-benzopyran-2-carboxamide], the half-maximal effective concentration (EC50) was in the range of 10 to 50 nM.

Take `O=C(NC12CC(n3cc(OCCOC(F)(F)F)cn3)(C1)C2)[C@H]1C[C@H](O)c2cc(Cl)ccc2O1` [Compound 632, (2R,4S)-6-chloro-4-hydroxy-N-(3-{4-[2-(trifluoromethoxy)ethoxy]-1H-pyrazol-1-yl}bicyclo[1.1.1]pentan-1-yl)-3,4-dihydro-2H-1-benzopyran-2-carboxamide]: the 50% effective concentration (EC50) fell in the range of 10 to 50 nM.

With `O=C(NC12CC(n3cc(OCCOC(F)(F)F)cn3)(C1)C2)[C@H]1C[C@H](O)c2cc(C(F)(F)F)c(F)cc2O1` [Compound 633, (2R,43)-7-fluoro-4-hydroxy-N-(3-{4-[2-(trifluoromethoxy)ethoxy]-1H-pyrazol-1-yl}bicyclo[1.1.1]pentan-1-yl)-6-(trifluoromethyl)-3,4-dihydro-2H-1-benzopyran-2-carboxamide], the EC50 was under 10 nM.

As to `O=C(NC12CC(n3cc(-c4ccc(OC(F)(F)F)cn4)cn3)(C1)C2)[C@H]1C[C@H](O)c2cc(C(F)(F)F)c(F)cc2O1` [Compound 634, (2R,4S)-7-fluoro-4-hydroxy-N-(3-{4-[5-(trifluoromethoxy)pyridin-2-yl]-1H-pyrazol-1-yl}bicyclo[1.1.1]pentan-1-yl)-6-(trifluoromethyl)-3,4-dihydro-2H-1-benzopyran-2-carboxamide], the EC50 is under 10 nM.

For `O=C(NC12CC(n3cc(OCCCOC(F)(F)F)cn3)(C1)C2)[C@H]1C[C@@H](O)c2cc(C(F)(F)F)c(F)cc2O1` [Compound 635, (2R,4R)-7-fluoro-4-hydroxy-N-(3-{4-[3-(trifluoromethoxy)propoxy]-1H-pyrazol-1-yl}bicyclo[1.1.1]pentan-1-yl)-6-(trifluoromethyl)-3,4-dihydro-2H-1-benzopyran-2-carboxamide], the EC50 is under 10 nM.

For `O=C(NC12CC(n3cc(OCCCOC(F)(F)F)cn3)(C1)C2)[C@H]1C[C@H](O)c2cc(C(F)(F)F)c(F)cc2O1` [Compound 636, (2R,4S)-7-fluoro-4-hydroxy-N-(3-{4-[3-(trifluoromethoxy)propoxy]-1H-pyrazol-1-yl}bicyclo[1.1.1]pentan-1-yl)-6-(trifluoromethyl)-3,4-dihydro-2H-1-benzopyran-2-carboxamide], the EC50 is under 10 nM.
